Experimental data reported in US10377774B2 (JINAN UNIVERSITY, priority 2013, dated 2019).
Like-named read-outs stand apart in the source and are kept apart here. Marks after values point to notes of the source that are not given here. Values belong to the molecule of their own block, whether it stands above or below them.

What was measured:
[1] = tested on: human non-small-cell lung cancer cell line A549; test: MTT cell growth inhibition, A549; assay type: cell-based; conditions: A549, MTT assay, 72 h, read-out: IC50, growth of tumor cell line
[2] = tested on: human colon cancer cell line LOVO; test: MTT cell growth inhibition, LOVO; assay type: cell-based; conditions: LOVO (FAPα positive), MTT assay, 72 h, read-out: IC50, growth of tumor cell line
Description: (§3) Experimental method: Cell lines (human non-small-cell lung cancer cell line A549, human colon cancer cell line LOVO, human nasopharyngeal carcinoma cell line CNE-2, human liver cancer cell line HepG2, human cervical carcinoma cell line Hela, human breast cancer cell lines MCF-7 and MDA-MB-231, human gastric carcinoma cell line NCI-N87, human prostatic cancer cell lines PC-3 and DU145, human leukemia cell line K562, human melanoma cell line A375, human neuroblastoma cell line SH-SY5H, human promyelocytic leukemia cell line HL-60, 5-FU-resistant human hepatocellular carcinoma cell line BEL-7402/5-Fu, doxorubicin-resistant hepatocellular carcinoma cell line HepG2/ADM, doxorubicin-resistant human breast cancer cell lines MCF-7/ADR) at logarithmic phase were resuspended in RPMI 1640 medium (containing 10% fetal bovine serum, 100 U/mL penicillin-streptomycin). Then, 100 μL of cells (cell concentration was 5×10^5/mL) were seeded into 96 wells plate. After 24 h incubation at 37° C. with 5% CO2, tested compounds were added (the control group without compound) for an additional 72 h incubation. After that, 30 μL of MTT [3-(4,5-Dimethylthiazol-2-yl)-2,5-diphenyltetrazolium bromide] solution (5 mg/mL) was added into each well and incubated for another 4 h at 37° C. and then the formazan crystals were solubilized with 100 μL DMSO. Finally, absorbance of each well was determined at 570 nm by a microplate reader (Thermo).
(§4) The concentration required to inhibit cell growth by 50% (IC50) was calculated from survival curves.

[3] = tested on: human nasopharyngeal carcinoma cell line CNE-2; test: MTT cell growth inhibition, CNE-2; assay type: cell-based; conditions: CNE-2, MTT assay, 72 h, read-out: IC50, growth of tumor cell line
Description: as §3, §4

[4] = tested on: human liver cancer cell line HepG2; test: MTT cell growth inhibition, HepG2; assay type: cell-based; conditions: HepG2, MTT assay, 72 h, read-out: IC50, growth of tumor cell line
Description: as §3, §4

[5] = tested on: human cervical carcinoma cell line Hela; test: MTT cell growth inhibition, Hela; assay type: cell-based; conditions: MTT assay, 72 h, read-out: IC50, growth of tumor cell line
[6] = tested on: human breast cancer cell line MCF-7; test: MTT cell growth inhibition, MCF-7; assay type: cell-based; conditions: MCF-7, MTT assay, 72 h, read-out: IC50, growth of tumor cell line
Description: as §3, §4

[7] = tested on: human breast cancer cell line MDA-MB-231; test: MTT cell growth inhibition, MDA-MB-231; assay type: cell-based; conditions: MDA-MB-231, MTT assay, 72 h, read-out: IC50, growth of tumor cell line
Description: as §3, §4

[8] = tested on: human gastric carcinoma cell line NCI-N87; test: MTT cell growth inhibition, NCI-N87; assay type: cell-based; conditions: NCI-N87, MTT assay, 72 h, read-out: IC50, growth of tumor cell line
[9] = tested on: human prostatic cancer cell line PC-3; test: MTT cell growth inhibition, PC-3; assay type: cell-based; conditions: PC-3, MTT assay, 72 h, read-out: IC50, growth of tumor cell line
Description: as §3, §4

[10] = tested on: human prostatic cancer cell line DU145; test: MTT cell growth inhibition, DU-145; assay type: cell-based; conditions: DU-145, MTT assay, 72 h, read-out: IC50, growth of tumor cell line
Description: as §3, §4

[11] = tested on: human leukemia cell line K562; test: MTT cell growth inhibition, K562; assay type: cell-based; conditions: K562, MTT assay, 72 h, read-out: IC50, growth of tumor cell line
[12] = tested on: human melanoma cell line A375; test: MTT cell growth inhibition, A375; assay type: cell-based; conditions: A375, MTT assay, 72 h, read-out: IC50, growth of tumor cell line
Description: as §3, §4

[13] = tested on: human neuroblastoma cell line SH-SY5H; test: MTT cell growth inhibition, SH-SY5H; assay type: cell-based; conditions: MTT assay, 72 h, read-out: IC50, growth of tumor cell line
Description: as §3, §4

[14] = tested on: human promyelocytic leukemia cell line HL-60; test: MTT cell growth inhibition, HL-60; assay type: cell-based; conditions: HL-60, MTT assay, 72 h, read-out: IC50, growth of tumor cell line
Description: as §3, §4

[15] = tested on: 5-FU-resistant human hepatocellular carcinoma cell line BEL-7402/5-Fu; test: MTT cell growth inhibition, BEL-7402/5-Fu; assay type: cell-based; conditions: MTT assay, 72 h, read-out: IC50, growth of tumor cell line
Description: as §3, §4

[16] = tested on: doxorubicin-resistant hepatocellular carcinoma cell line HepG2/ADM; test: MTT cell growth inhibition, HepG2/ADM; assay type: cell-based, human; conditions: MTT assay, 72 h, read-out: IC50, growth of tumor cell line
Description: as §3, §4

MDA-MB-231 xenografts = MDA-MB-231 xenografts in nude mice; assay type: in vivo, BALB/nu/nu mice; conditions: MDA-MB-231 xenograft nude mice; for Anti-tumor rate (%) / Body weight (g) Post-dose / Tumor weight: 1 mg/kg i.p. every two days, 8 administrations; for Body weight (g) Pre-dose: before dosing
Description: (§1) Experimental method: The MDA-MB-231 cells at logarithmic phase were digested and washed twice with PBS. Then, 100 μL cells (1×10^7) were inoculated subcutaneously on the backs of female BALB/nu/nu mice. After tumors grew to 70˜100 mm^3, the mice were divided randomly into saline group (control group), vinca alkaloids groups (VLB, CCRB, CCFN, CCXJ) and vinca alkaloid derivatives groups (JJ-CCJ, BX-CCJ, JJ-CCRB, BX-CCRB, JJ-CCFN, BX-CCFN, JJ-CCXJ and BX-CCXJ), with six mice per group. 1 mg/kg drugs were injected intraperitoneally every two days, meanwhile body weight and tumor sizes were measured. Experiment was ended after 8 times of drug administration, then tumor and organs were stripped. Tumor volumes were measured using the following formula: V=½(ab^2), whereas a refers to the longest diameter and b is the shortest diameter.

HepG2 xenografts = HepG2 xenografts in nude mice; assay type: in vivo; conditions: HepG2 xenograft nude mice; for Anti-tumor rate (%) / Body weight (g) Post-dose / Tumor weight: 1 mg/kg; for Body weight (g) Pre-dose: before dosing
Description: as §1
(§2) Tumor xenograft models of HepG2, LOVO, K562 and HL-60 cell lines were performed as the method described above.

LOVO xenografts = LOVO xenografts in nude mice; assay type: in vivo; conditions: LOVO xenograft nude mice; for Anti-tumor rate (%) / Body weight (g) Post-dose / Tumor weight: 1 mg/kg; for Body weight (g) Pre-dose: before dosing
Description: as §1, §2

K562 xenografts = K562 xenografts in nude mice; assay type: in vivo; conditions: K562 xenograft nude mice; for Anti-tumor rate (%) / Body weight (g) Post-dose / Tumor weight: 1 mg/kg; for Body weight (g) Pre-dose: before dosing
Description: as §1, §2

HL-60 xenografts = HL-60 xenografts in nude mice; assay type: in vivo; conditions: HL-60 xenograft nude mice; for Anti-tumor rate (%) / Body weight (g) Post-dose / Tumor weight: 1 mg/kg; for Body weight (g) Pre-dose: before dosing
Description: as §1, §2

[17] = MTT cytotoxicity on normal cells, LO2; conditions: human, LO2 cells (human normal liver cells)
Description: (§5) Then, 100 μL of cells (cell concentration was 5×10^5/mL) were seeded into 96 wells plate. After 24 h incubation at 37° C. with 5% CO2, tested compounds were added (the control group without compound) for an additional 72 h incubation. After that, 30 μL of MTT [3-(4,5-Dimethylthiazol-2-yl)-2,5-diphenyltetrazolium bromide] solution (5 mg/mL) was added into each well and incubated for another 4 h at 37° C. and then the formazan crystals were solubilized with 100 μL DMSO. Finally, absorbance of each well was determined at 570 nm by a microplate reader (Thermo).
(§6) The standard curve was drew with compound concentrations as the abscissa and cell growth inhibition rates as the ordinate. The concentration required to inhibit cell growth by 50% (IC50) was calculated from survival curves.
(§7) Experimental method: In vitro cytotoxicities of vinca alkaloids, hydrazinolyzed vinca alkaloids and vinca alkaloid dipeptide derivatives on human normal liver cells LO2 and human umbilical vein endothelial cells HUVEC were detected according to the method of Example 2.

[18] = MTT cytotoxicity on normal cells, HUVEC; conditions: human, HUVEC (human umbilical vein endothelial cells)
Description: as §5, §6, §7

[19] = tested on: doxorubicin-resistant human breast cancer cell lines MCF-7/ADR; test: MTT cell growth inhibition, MCF-7/ADR; assay type: cell-based; conditions: Homo sapiens, NCI/ADR-RES, MTT assay, 72 h, read-out: IC50, growth of tumor cell line
Description: as §3, §4

Kunming mice = test: Acute toxicity test; assay type: in vivo; conditions: injected intraperitoneally
Description: Experimental method: Kunming mice were purchased from Guangdong Medical Experimental Animal Center, weighing 18-22 g, then randomly divided into several groups with 10 mice in each group. Different concentrations of VLB and vinca alkaloid dipeptide derivatives were injected intraperitoneally. Finally, the median lethal dose (LD50) was calculated according to the surviving animals.
LD50 was measured using the following formula:
LD50 (mg/kg)=The median lethal dose/body weight

[20] = tested on: human normal liver cells LO2; test: MTT cytotoxicity on normal cells, LO2; conditions: read-out: IC50, cytotoxicity on normal cell line; LO2, MTT assay
Description: as §5, §6, §7

[21] = tested on: human umbilical vein endothelial cells HUVEC; test: MTT cytotoxicity on normal cells, HUVEC; conditions: read-out: IC50, cytotoxicity on normal cell line; HUVEC, MTT assay
Description: as §5, §6, §7

[22] = Homo sapiens, Neuroblastoma cell

SMILES: CC[C@]1(O)C[C@@H]2CN(CCc3c([nH]c4ccccc34)[C@@](C(=O)OC)(c3cc4c(cc3OC)N(C)[C@H]3[C@@](O)(C(=O)NN)[C@H](O)[C@]5(CC)C=CCN6CC[C@]43[C@@H]65)C2)C1 [JJ-CCJ, hydrazinolyzed vinblastine]
IC50 ([1]; Homo sapiens): 6.43 ± 2.42 nM
IC50 ([2]; Homo sapiens): 32.9 ± 6.39 nM
IC50 ([3]; Homo sapiens): 7.14 ± 0.16 nM
IC50 ([4]; Homo sapiens): 12.4 ± 0.72 nM
IC50 ([5]; Homo sapiens): 14.5 ± 1.81 nM
IC50 ([6]; Homo sapiens, MCF7): 23.9 ± 3.07 nM
IC50 ([7]; Homo sapiens): 5.99 ± 3.29 nM
IC50 ([8]; Homo sapiens): 17.4 ± 2.2 nM
IC50 ([9]; Homo sapiens): 6.27 ± 0.61 nM
IC50 ([10]; Homo sapiens): 5.33 ± 0.6 nM
IC50 ([11]; Homo sapiens): 3.67 ± 0.79 nM
IC50 ([12]; Homo sapiens, A-375): 4.56 ± 0.57 nM
IC50 [13, 22]: 6.24 ± 1.31 nM
IC50 ([14]; Homo sapiens): 8.65 ± 1.28 nM
IC50 ([15]; Homo sapiens, Bel7402/5-FU): 80.3 ± 7.53 nM
IC50 ([16]; Homo sapiens): 43.9 ± 3.77 nM
Anti-tumor rate (%) (MDA-MB-231 xenografts): 87.74** %
Body weight (g) Post-dose (MDA-MB-231 xenografts): 16.4 ± 1.7 g
Tumor weight (MDA-MB-231 xenografts): 0.32 ± 0.03 g
Body weight (g) Pre-dose (MDA-MB-231 xenografts): 20.3 ± 0.7 g
Anti-tumor rate (%) (HepG2 xenografts): 77.65** %
Body weight (g) Post-dose (HepG2 xenografts): 16.1 ± 0.3 g
Tumor weight (HepG2 xenografts): 0.57 ± 0.7 g
Body weight (g) Pre-dose (HepG2 xenografts): 21.7 ± 1.2 g
Anti-tumor rate (%) (LOVO xenografts): 77.71** %
Body weight (g) Post-dose (LOVO xenografts): 17.3 ± 1.2 g
Tumor weight (LOVO xenografts): 0.64 ± 0.21 g
Body weight (g) Pre-dose (LOVO xenografts): 22.8 ± 1.7 g
Anti-tumor rate (%) (K562 xenografts): 68.45** %
Body weight (g) Post-dose (K562 xenografts): 16.5 ± 0.8 g
Tumor weight (K562 xenografts): 0.53 ± 0.19 g
Body weight (g) Pre-dose (K562 xenografts): 22.1 ± 1.9 g
Anti-tumor rate (%) (HL-60 xenografts): 69.23** %
Body weight (g) Post-dose (HL-60 xenografts): 16.1 ± 0.4 g
Tumor weight (HL-60 xenografts): 0.64 ± 0.17 g
Body weight (g) Pre-dose (HL-60 xenografts): 20.1 ± 1.7 g
IC50 at 72 h [17]: 20.1 ± 0.97 nM
IC50 at 72 h [18]: 36.1 ± 1 nM

IC50 ([1]; Homo sapiens): 1.32 ± 0.03 nM
IC50 ([2]; Homo sapiens): 0.74 ± 0.09 nM
IC50 ([3]; Homo sapiens): 1.51 ± 0.76 nM
IC50 ([4]; Homo sapiens): 0.97 ± 0.12 nM
IC50 ([5]; Homo sapiens): 2.33 ± 0.77 nM
IC50 ([6]; Homo sapiens, MCF7): 2.74 ± 0.36 nM
IC50 ([7]; Homo sapiens): 1.03 ± 0.22 nM
IC50 ([8]; Homo sapiens): 0.87 ± 0.26 nM
IC50 ([9]; Homo sapiens): 2.93 ± 0.37 nM
IC50 ([10]; Homo sapiens): 1.17 ± 0.31 nM
IC50 ([11]; Homo sapiens): 1.07 ± 0.33 nM
IC50 ([12]; Homo sapiens, A-375): 0.95 ± 0.16 nM
IC50 [13, 22]: 1.34 ± 0.21 nM
IC50 ([14]; Homo sapiens): 1.81 ± 0.17 nM
IC50 ([15]; Homo sapiens, Bel7402/5-FU): 22.7 ± 3.37 nM
IC50 ([16]; Homo sapiens): 7.78 ± 2.01 nM
IC50 [19]: 9.67 ± 2.2 nM
SMILES: CC[C@]1(O)C[C@H]2CN(CCc3c([nH]c4ccccc34)[C@@](C(=O)OC)(c3cc4c(cc3OC)N(C=O)[C@H]3[C@@](O)(C(=O)OC)[C@H](OC(C)=O)[C@]5(CC)C=CCN6CC[C@]43[C@@H]65)C2)C1 [Vincristine, reference compound]
IC50 at 72 h [17]: 0.21 ± 0.05 nM
IC50 at 72 h [18]: 0.42 ± 0.09 nM

SMILES: CCC1=CC2CN(C1)Cc1c([nH]c3ccccc13)C(C(=O)OC)(c1cc3c(cc1OC)N(C)C1C(O)(C(=O)NNC(=O)C4CCCN4C(=O)CNC(=O)OCc4ccccc4)C(O)C4(CC)C=CCN5CCC31C54)C2 (stereo not drawn) [BX-CCRB, Z-GP-NHNH-Vinorelbine]
IC50 [1]: 115 ± 5.23 nM
IC50 [2]: 123 ± 11.4 nM
IC50 [3]: 210 ± 5.78 nM
IC50 [4]: 167 ± 4.37 nM
IC50 [5]: 182 ± 2.36 nM
IC50 [6]: 238 ± 8.37 nM
IC50 [7]: 181 ± 8.1 nM
IC50 [8]: 244 ± 9.33 nM
IC50 [9]: 269.8 ± 2.03 nM
IC50 [10]: 219 ± 6.29 nM
IC50 [11]: 109 ± 4.66 nM
IC50 [12]: 120 ± 14.5 nM
IC50 [13]: 166 ± 15.6 nM
IC50 [14]: 208 ± 18.4 nM
IC50 [15]: 325 ± 11.7 nM
IC50 [16]: 437 ± 14.4 nM
LD50 (median lethal dose) (Kunming mice): 12 mg/kg
Anti-tumor rate (%) (MDA-MB-231 xenografts): 85.83** %
Body weight (g) Post-dose (MDA-MB-231 xenografts): 20.1 ± 0.9 g
Tumor weight (MDA-MB-231 xenografts): 0.37 ± 0.07 g
Body weight (g) Pre-dose (MDA-MB-231 xenografts): 19.1 ± 1.7 g
Anti-tumor rate (%) (HepG2 xenografts): 85.49** %
Body weight (g) Post-dose (HepG2 xenografts): 22.6 ± 0.5 g
Tumor weight (HepG2 xenografts): 0.37 ± 0.09 g
Body weight (g) Pre-dose (HepG2 xenografts): 22.2 ± 1.5 g
Anti-tumor rate (%) (LOVO xenografts): 80.14** %
Body weight (g) Post-dose (LOVO xenografts): 24.1 ± 2.3 g
Tumor weight (LOVO xenografts): 0.57 ± 0.23 g
Body weight (g) Pre-dose (LOVO xenografts): 23.6 ± 1.2 g
Anti-tumor rate (%) (K562 xenografts): 72.62** %
Body weight (g) Post-dose (K562 xenografts): 23.4 ± 1.2 g
Tumor weight (K562 xenografts): 0.46 ± 0.29 g
Body weight (g) Pre-dose (K562 xenografts): 22.1 ± 0.5 g
Anti-tumor rate (%) (HL-60 xenografts): 74.52** %
Body weight (g) Post-dose (HL-60 xenografts): 19.2 ± 1.3 g
Tumor weight (HL-60 xenografts): 0.53 ± 0.28 g
Body weight (g) Pre-dose (HL-60 xenografts): 19.0 ± 1.2 g
IC50 [20]: 183 ± 5.51 nM
IC50 [21]: 167 ± 8.87 nM
